# Data taken from patent US20020040203A1, “Method for transdermal or intradermal delivery of molecules” (priority 2000, published 2002).
# Legend:
# [1] = Transport of model molecules through heat-stripped porcine stratum corneum by electroporation, Hanson Vertical Diffusion chamber; format: in vitro ADME; conditions: for transport across the SC to the acceptor chamber: negative pulses 375V, 1 msec, 1 Hz, up to 30 min
# Experimental: Stratum corneum layer was obtained from porcine skin by heat treatment as follows. Fresh pieces of porcine skin were wrapped in aluminum foil and placed in a 60° C. water bath for 5 minutes. The SC was gently pulled away from the remaining tissue. The SC can be used directly or stored on glass microscope slides at 4° C. The SC was then used in a Hanson Vertical Diffusion chamber. This simple device is an accepted model system for studying transport through skin by those skilled in the art. This device contains two compartments which are filled with a suitable buffer (10 mM Tris, 100 mM NaCl, 1 mM EDTA at pH 8.0). One of the compartments acts as the donor and the other as the acceptor. The liposomes and the test molecule are added to the donor chamber. The outermost layer of the skin, the SC forms an effective barrier to the transport of biomolecules. The upper chamber was considered as the outer surface of the skin and the lower chamber as the skin directly below the SC. Platinum wires served as electrodes, one was placed in the upper chamber and the other in the lower chamber. Electric pulses were applied across the SC using a pulse generator.
# Lipid formulations were prepared as follows. Dioleylphosphatidylglycerol and dioleylphosphatidyl choline was mixed at an approximate 1:1 molar ratio and dispersed in buffer by vigorous vortexing resulting in the formation of multilamellar lipid vesicles (MLV). The molecular weights of the molecules tested range from 200 to 600. The model molecules were chosen for their charge and their respective solubility.
# […] The model molecule as a solution in buffer was then added to the upper chamber. During the next 10 min no pulses were applied. An aliquot of the buffer was removed from the lower (acceptor) chamber. Pulses were next applied for 10, 20 and 30 min and aliquots removed from the lower chamber for analysis at 10, 20 and 30 min to determine delivery of the model molecule. Another aliquot was removed from the lower chamber 10 min after cessation of pulse application. In control studies, the SC was pre-pulsed for 10 min with buffer only (no lipid) and then the model molecule added in the upper chamber and pulsed for three further periods of 10 min each.
# The amount of the model molecule transported to the acceptor chamber was measured in the aliquots removed at different times by using fluorescence spectroscopy.
# [2] = cited from earlier work; for charge: pH 8 stated for PP-IX
# [3] = cited from earlier work
# [4] = SC pre-treated with DOPG:DOPC lipid formulation
# [5] = absence of lipid formulation (pre-pulsed with buffer only)
Compound,"transport across the SC to the acceptor chamber [1, 4]","transport across the SC to the acceptor chamber [1, 5]","concentration in the lower chamber after cessation of pulse application ([1]; negative pulses, SC pre-treated with lipid formulation, 10 min without pulse)","effect of lipid formulation on transport ([1]; pulses of positive polarity, DOPG:DOPC MLV present)",charge [2],solubility [2],log P (partition coefficient between octanol and water) [3]
"CN(C)c1ccc2nc3ccc(=[N+](C)C)cc-3sc2c1 [MB, Methylene Blue]",large amount of MB transported across the SC,very little MB present in the acceptor chamber,continued increase in MB concentration in the lower chamber,inhibited the transport of MB,positively charged,,
"C=CC1=C(C)c2cc3[nH]c(cc4nc(cc5[nH]c(cc1n2)c(C)c5CCC(=O)O)C(CCC(=O)O)=C4C)c(C)c3C=C [PP-IX, protoporphyrin IX]",an increase in the transport in the presence of the added lipid,significant transport of PP-IX across the SC,,,,low solubility,
bleomycin,,,,,,,very negative
methylated protoprophyrin IX [MPP-IX],enhanced transport,very low transport,,,no charge,soluble only in the presence of detergents,
